Source: ChEMBL document CHEMBL1152049, “Dual metalloprotease inhibitors.v. Utilization of bicyclic azepinonethiazolidines and azepinonetetrahydrothiazines in constrained peptidomimetics of mercaptoacyl dipeptides” (Bioorg Med Chem Lett, 1995)

Columns and labels:
[1] = target: T1, Neprilysin (Rattus norvegicus, UniProt P07861); test: In vitro inhibitory activity against neutral endopeptidase (NEP); details: read-out: I50
T1 sequence (P07861 whole entry): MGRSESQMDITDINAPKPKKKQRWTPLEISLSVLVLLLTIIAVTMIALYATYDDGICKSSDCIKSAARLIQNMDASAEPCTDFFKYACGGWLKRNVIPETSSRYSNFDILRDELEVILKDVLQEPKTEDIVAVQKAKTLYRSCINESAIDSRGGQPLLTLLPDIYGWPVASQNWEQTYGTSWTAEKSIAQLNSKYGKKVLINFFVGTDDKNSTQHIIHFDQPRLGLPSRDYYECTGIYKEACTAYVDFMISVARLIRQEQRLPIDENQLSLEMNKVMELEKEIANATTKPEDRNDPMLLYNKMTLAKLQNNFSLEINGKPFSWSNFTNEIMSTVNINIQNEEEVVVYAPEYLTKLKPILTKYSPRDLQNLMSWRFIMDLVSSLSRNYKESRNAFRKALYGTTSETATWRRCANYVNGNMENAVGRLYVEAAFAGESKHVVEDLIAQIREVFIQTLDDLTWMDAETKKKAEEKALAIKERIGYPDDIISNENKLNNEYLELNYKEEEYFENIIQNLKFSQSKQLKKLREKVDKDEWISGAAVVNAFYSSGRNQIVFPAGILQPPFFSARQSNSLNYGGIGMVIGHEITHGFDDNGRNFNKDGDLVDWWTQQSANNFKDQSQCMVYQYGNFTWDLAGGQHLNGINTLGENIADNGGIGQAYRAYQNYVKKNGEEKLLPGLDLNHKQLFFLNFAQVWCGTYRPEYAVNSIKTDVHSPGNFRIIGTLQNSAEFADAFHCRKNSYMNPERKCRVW

[2] = target: T2, Angiotensin-converting enzyme (Rattus norvegicus, UniProt P47820); test: In vitro inhibitory activity against angiotensin converting enzyme (ACE); details: read-out: I50
T2 sequence (P47820 whole entry): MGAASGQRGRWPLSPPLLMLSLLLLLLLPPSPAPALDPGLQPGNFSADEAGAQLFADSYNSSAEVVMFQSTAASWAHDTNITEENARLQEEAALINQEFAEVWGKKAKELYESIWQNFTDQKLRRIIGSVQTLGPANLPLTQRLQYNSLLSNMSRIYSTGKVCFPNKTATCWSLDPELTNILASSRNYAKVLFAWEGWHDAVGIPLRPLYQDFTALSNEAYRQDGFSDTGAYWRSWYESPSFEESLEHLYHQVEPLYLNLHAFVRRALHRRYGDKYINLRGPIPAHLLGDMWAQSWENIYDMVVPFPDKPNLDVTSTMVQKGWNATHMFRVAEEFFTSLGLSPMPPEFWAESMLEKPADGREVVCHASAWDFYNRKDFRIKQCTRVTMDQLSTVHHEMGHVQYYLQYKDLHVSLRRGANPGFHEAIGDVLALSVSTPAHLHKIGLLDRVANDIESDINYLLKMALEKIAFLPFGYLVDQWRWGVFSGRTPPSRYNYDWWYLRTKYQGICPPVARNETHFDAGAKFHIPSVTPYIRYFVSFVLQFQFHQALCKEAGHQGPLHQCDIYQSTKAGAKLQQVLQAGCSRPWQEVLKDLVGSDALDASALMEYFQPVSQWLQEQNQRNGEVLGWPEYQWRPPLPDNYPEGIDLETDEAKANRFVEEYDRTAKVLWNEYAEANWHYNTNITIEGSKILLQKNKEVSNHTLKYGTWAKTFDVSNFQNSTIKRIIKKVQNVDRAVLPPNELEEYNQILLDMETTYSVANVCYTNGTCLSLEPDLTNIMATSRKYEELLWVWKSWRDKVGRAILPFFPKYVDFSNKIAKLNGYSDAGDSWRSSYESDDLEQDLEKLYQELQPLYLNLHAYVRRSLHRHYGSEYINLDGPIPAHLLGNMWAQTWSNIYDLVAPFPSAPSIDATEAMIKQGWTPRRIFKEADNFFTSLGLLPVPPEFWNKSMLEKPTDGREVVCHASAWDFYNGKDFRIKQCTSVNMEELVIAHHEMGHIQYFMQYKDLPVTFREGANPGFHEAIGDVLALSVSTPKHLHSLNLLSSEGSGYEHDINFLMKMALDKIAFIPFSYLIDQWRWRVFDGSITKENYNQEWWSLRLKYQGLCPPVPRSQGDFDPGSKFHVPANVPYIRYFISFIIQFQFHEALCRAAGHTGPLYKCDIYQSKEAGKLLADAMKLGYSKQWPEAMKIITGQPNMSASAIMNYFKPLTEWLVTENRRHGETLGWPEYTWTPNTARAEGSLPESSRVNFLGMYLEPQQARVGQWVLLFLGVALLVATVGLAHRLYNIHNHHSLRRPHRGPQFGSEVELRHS

[3] = species on record: Rattus norvegicus; test: Dose required to effect 50% inhibition of the AI induced pressor response in normotensive rat; format: functional

Compound | IC50 [1] | IC50 [2] | ED50 [3]
O=C(O)[C@H]1CCS[C@@H]2CCC[C@H](NC(=O)[C@@H](S)Cc3ccccc3)C(=O)N12 | 937 nM | 205 nM | 
O=C(N[C@H]1CCC[C@H]2SC[C@@H](C(=O)O)N2C1=O)[C@@H](S)Cc1ccccc1 | 11.5 nM | 1.6 nM | 0.07 µmol/kg
O=C(N[C@H]1CCC[C@H]2SC[C@@H](C(=O)O)N2C1=O)[C@@H](CS)Cc1ccccc1 | 1.1 nM | 5.5 nM | 0.8 µmol/kg

Second part, led by results:

IC50 [1] | IC50 [2] | Compound | ED50 [3]
2820 nM | 11.5 nM | O=C(N[C@H]1CCC[C@@H]2SC[C@@H](C(=O)O)N2C1=O)[C@@H](S)Cc1ccccc1 | 
42 nM | 25 nM | O=C(N[C@H]1CCC[C@H]2SCC[C@@H](C(=O)O)N2C1=O)[C@@H](S)Cc1ccccc1 | 
133 nM | 11.6 nM | O=C(N[C@H]1CCC[C@@H]2SCC[C@@H](C(=O)O)N2C1=O)[C@@H](S)Cc1ccccc1 | 
